From PubChem BioAssay (NCI)
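The compound was tested at five concentrations on cells cultured in 96-well plates, with a 48-hour exposure period. TGI marks complete inhibition of growth.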

Assays:
Assay in all cases: DTP human tumour cell line panel, 48 h
OVCAR-8 ovarian = system: OVCAR-8 ovarian
SNB-19 CNS = system: SNB-19 CNS
NCI-H226 lung = system: NCI-H226 lung
COLO 205 colon = system: COLO 205 colon
T-47D breast = system: T-47D breast
A549 NSCLC = system: A549 NSCLC
SR leukemia = system: SR leukemia
NCI-H522 lung = system: NCI-H522 lung
SF-268 CNS = system: SF-268 CNS
HCT-15 colon = system: HCT-15 colon
HS 578T breast = system: HS 578T breast
OVCAR-4 ovarian = system: OVCAR-4 ovarian
SK-MEL-5 melanoma = system: SK-MEL-5 melanoma
TK-10 renal = system: TK-10 renal
SW-620 colon = system: SW-620 colon
SNB-75 CNS = system: SNB-75 CNS
OVCAR-5 ovarian = system: OVCAR-5 ovarian
SK-MEL-28 melanoma = system: SK-MEL-28 melanoma
HT29 colon = system: HT29 colon
KM12 colon = system: KM12 colon
HL-60(TB) leukemia = system: HL-60(TB) leukemia
SK-OV-3 ovarian = system: SK-OV-3 ovarian
SF-539 CNS = system: SF-539 CNS
CAKI-1 renal = system: CAKI-1 renal
A498 renal = system: A498 renal
RPMI-8226 leukemia = system: RPMI-8226 leukemia
M14 melanoma = system: M14 melanoma
MOLT-4 leukemia = system: MOLT-4 leukemia
786-0 renal = system: 786-0 renal
UACC-257 melanoma = system: UACC-257 melanoma
U251 CNS = system: U251 CNS
UO-31 renal = system: UO-31 renal
K-562 leukemia = system: K-562 leukemia
LOX IMVI melanoma = system: LOX IMVI melanoma
HOP-92 NSCLC = system: HOP-92 NSCLC
MDA-N = system: MDA-N
MALME-3M melanoma = system: MALME-3M melanoma
ACHN renal = system: ACHN renal
EKVX NSCLC = system: EKVX NSCLC
RXF 393 renal = system: RXF 393 renal
MDA-MB-435 = system: MDA-MB-435
CCRF-CEM leukemia = system: CCRF-CEM leukemia
HCT-116 colon = system: HCT-116 colon
NCI/ADR-RES ovarian = system: NCI/ADR-RES ovarian
SF-295 CNS = system: SF-295 CNS
MDA-MB-231 breast = system: MDA-MB-231 breast
DU-145 prostate = system: DU-145 prostate
SN12C renal = system: SN12C renal
IGROV1 ovarian = system: IGROV1 ovarian
NCI-H23 lung = system: NCI-H23 lung
HCC-2998 colon = system: HCC-2998 colon
SK-MEL-2 melanoma = system: SK-MEL-2 melanoma
HOP-62 NSCLC = system: HOP-62 NSCLC
PC-3 prostate = system: PC-3 prostate
NCI-H460 lung = system: NCI-H460 lung
OVCAR-3 ovarian = system: OVCAR-3 ovarian
MCF7 breast = system: MCF7 breast
UACC-62 melanoma = system: UACC-62 melanoma

Question: Which results are given for `Nc1c(N2CCCCC2)c(=O)nc2[nH]/c(=C\c3ccco3)c(=O)n12`?
Answer: TGI (OVCAR-8 ovarian): > 100 µM; TGI (SNB-19 CNS): > 100 µM; TGI (NCI-H226 lung): > 100 µM; TGI (COLO 205 colon): > 100 µM; TGI (T-47D breast): > 100 µM; TGI (A549 NSCLC): > 100 µM; TGI (SR leukemia): > 100 µM; TGI (NCI-H522 lung): > 100 µM; TGI (SF-268 CNS): > 100 µM; TGI (HCT-15 colon): > 100 µM; TGI (HS 578T breast): > 100 µM; TGI (OVCAR-4 ovarian): > 100 µM; TGI (SK-MEL-5 melanoma): > 100 µM; TGI (TK-10 renal): > 100 µM; TGI (SW-620 colon): > 100 µM; TGI (SNB-75 CNS): > 100 µM; TGI (OVCAR-5 ovarian): > 100 µM; TGI (SK-MEL-28 melanoma): > 100 µM; TGI (HT29 colon): > 100 µM; TGI (KM12 colon): > 100 µM; TGI (HL-60(TB) leukemia): > 100 µM; TGI (SK-OV-3 ovarian): > 100 µM; TGI (SF-539 CNS): > 100 µM; TGI (CAKI-1 renal): > 100 µM; TGI (A498 renal): > 100 µM; TGI (RPMI-8226 leukemia): > 100 µM; TGI (M14 melanoma): > 100 µM; TGI (MOLT-4 leukemia): > 100 µM; TGI (786-0 renal): > 100 µM; TGI (UACC-257 melanoma): > 100 µM; TGI (U251 CNS): > 100 µM; TGI (UO-31 renal): > 100 µM; TGI (K-562 leukemia): > 100 µM; TGI (LOX IMVI melanoma): > 100 µM; TGI (HOP-92 NSCLC): > 100 µM; TGI (MDA-N): > 100 µM; TGI (MALME-3M melanoma): > 100 µM; TGI (ACHN renal): > 100 µM; TGI (EKVX NSCLC): > 100 µM; TGI (RXF 393 renal): > 100 µM; TGI (MDA-MB-435): > 100 µM; TGI (CCRF-CEM leukemia): > 100 µM; TGI (HCT-116 colon): > 100 µM; TGI (NCI/ADR-RES ovarian): > 100 µM; TGI (SF-295 CNS): > 100 µM; TGI (MDA-MB-231 breast): > 100 µM; TGI (DU-145 prostate): > 100 µM; TGI (SN12C renal): > 100 µM; TGI (IGROV1 ovarian): > 100 µM; TGI (NCI-H23 lung): > 100 µM

Question: Which TGI (OVCAR-8 ovarian) does the source give for `COP(=O)(OC)/C(=C\C1=CN(C(c2ccccc2)(c2ccccc2)c2ccccc2)CN1)NC=O` here?
Answer: 54.8 µM

Question: And the TGI (SNB-19 CNS)?
Answer: 43.4 µM

Question: And the TGI (NCI-H226 lung)?
Answer: 39.5 µM

Question: And the TGI (COLO 205 colon)?
Answer: 40.5 µM

Question: What about the TGI (T-47D breast) of the same molecule?
Answer: 49.2 µM

Question: And the TGI (A549 NSCLC)?
Answer: 30.5 µM

Question: What about the TGI (SR leukemia) of the same molecule?
Answer: 33.7 µM

Question: And the TGI (NCI-H522 lung)?
Answer: 33.5 µM

Question: And the TGI (HCC-2998 colon)?
Answer: 38.4 µM

Question: What about the TGI (HCT-15 colon) of the same molecule?
Answer: 33.1 µM

Question: And the TGI (HS 578T breast)?
Answer: 51.2 µM

Question: And the TGI (OVCAR-4 ovarian)?
Answer: 39.6 µM

Question: What about the TGI (SK-MEL-5 melanoma) of the same molecule?
Answer: 29.6 µM

Question: What about the TGI (TK-10 renal) of the same molecule?
Answer: 49.7 µM

Question: And the TGI (SW-620 colon)?
Answer: 42.4 µM

Question: What about the TGI (SNB-75 CNS) of the same molecule?
Answer: 39.8 µM

Question: What about the TGI (OVCAR-5 ovarian) of the same molecule?
Answer: 31.8 µM

Question: And the TGI (SK-MEL-28 melanoma)?
Answer: 32.5 µM

Question: What about the TGI (HT29 colon) of the same molecule?
Answer: 28.2 µM

Question: What about the TGI (HL-60(TB) leukemia) of the same molecule?
Answer: 50.9 µM

Question: And the TGI (SK-OV-3 ovarian)?
Answer: 33.1 µM

Question: What about the TGI (SK-MEL-2 melanoma) of the same molecule?
Answer: 30.4 µM

Question: What about the TGI (CAKI-1 renal) of the same molecule?
Answer: 39.5 µM

Question: And the TGI (A498 renal)?
Answer: 32.2 µM

Question: What about the TGI (HOP-62 NSCLC) of the same molecule?
Answer: 31.3 µM

Question: What about the TGI (RPMI-8226 leukemia) of the same molecule?
Answer: 39.9 µM

Question: What about the TGI (M14 melanoma) of the same molecule?
Answer: 43.9 µM

Question: What about the TGI (MOLT-4 leukemia) of the same molecule?
Answer: 30.6 µM

Question: And the TGI (UACC-257 melanoma)?
Answer: 34.1 µM

Question: What about the TGI (U251 CNS) of the same molecule?
Answer: 29.8 µM

Question: And the TGI (UO-31 renal)?
Answer: 29.1 µM

Question: What about the TGI (K-562 leukemia) of the same molecule?
Answer: > 100 µM

Question: And the TGI (LOX IMVI melanoma)?
Answer: 26.3 µM

Question: What about the TGI (HOP-92 NSCLC) of the same molecule?
Answer: 23 µM

Question: And the TGI (MDA-N)?
Answer: 28.4 µM

Question: What about the TGI (PC-3 prostate) of the same molecule?
Answer: 19.7 µM

Question: What about the TGI (ACHN renal) of the same molecule?
Answer: 28.9 µM

Question: What about the TGI (MDA-MB-435) of the same molecule?
Answer: 23.1 µM

Question: What about the TGI (NCI-H460 lung) of the same molecule?
Answer: 27 µM

Question: What about the TGI (HCT-116 colon) of the same molecule?
Answer: 29.6 µM

Question: And the TGI (NCI/ADR-RES ovarian)?
Answer: 29.9 µM

Question: And the TGI (SF-295 CNS)?
Answer: 30.2 µM

Question: And the TGI (MDA-MB-231 breast)?
Answer: 33.9 µM

Question: And the TGI (OVCAR-3 ovarian)?
Answer: 29.8 µM

Question: And the TGI (DU-145 prostate)?
Answer: 35.2 µM

Question: And the TGI (SN12C renal)?
Answer: 36.3 µM

Question: And the TGI (IGROV1 ovarian)?
Answer: 49.2 µM

Question: What about the TGI (NCI-H23 lung) of the same molecule?
Answer: 36.3 µM

Question: What does the source list for `CCOC1CCC2C(CCC(/C=C/c3ccc(O)c4ncccc34)N2C)C1` (stereo not drawn)?
Answer: TGI (OVCAR-8 ovarian): > 100 µM; TGI (SNB-19 CNS): > 100 µM; TGI (NCI-H226 lung): > 100 µM; TGI (COLO 205 colon): 11.9 µM; TGI (T-47D breast): 62 µM; TGI (A549 NSCLC): > 100 µM; TGI (SR leukemia): > 100 µM; TGI (NCI-H522 lung): 5.89 µM; TGI (MCF7 breast): > 100 µM; TGI (HCC-2998 colon): > 100 µM; TGI (SF-268 CNS): > 100 µM; TGI (HCT-15 colon): > 100 µM; TGI (HS 578T breast): 51.6 µM; TGI (SK-MEL-5 melanoma): > 100 µM; TGI (TK-10 renal): > 100 µM; TGI (SW-620 colon): > 100 µM; TGI (OVCAR-5 ovarian): > 100 µM; TGI (SK-MEL-28 melanoma): > 100 µM; TGI (HT29 colon): > 100 µM; TGI (KM12 colon): 95.2 µM; TGI (HL-60(TB) leukemia): > 100 µM; TGI (SF-539 CNS): 29.2 µM; TGI (HOP-62 NSCLC): > 100 µM; TGI (RPMI-8226 leukemia): > 100 µM; TGI (M14 melanoma): > 100 µM; TGI (MOLT-4 leukemia): > 100 µM; TGI (786-0 renal): > 100 µM; TGI (UACC-62 melanoma): > 100 µM; TGI (U251 CNS): > 100 µM; TGI (UO-31 renal): > 100 µM; TGI (K-562 leukemia): > 100 µM; TGI (HOP-92 NSCLC): 59.7 µM; TGI (MDA-N): > 100 µM; TGI (PC-3 prostate): > 100 µM; TGI (MALME-3M melanoma): > 100 µM; TGI (ACHN renal): > 100 µM; TGI (EKVX NSCLC): 90.4 µM; TGI (NCI-H460 lung): > 100 µM; TGI (CCRF-CEM leukemia): > 100 µM; TGI (NCI/ADR-RES ovarian): > 100 µM; TGI (SF-295 CNS): > 100 µM; TGI (DU-145 prostate): > 100 µM; TGI (SN12C renal): > 100 µM; TGI (IGROV1 ovarian): > 100 µM; TGI (NCI-H23 lung): 66 µM
